# Test results from ChEMBL document CHEMBL1909046, “DrugMatrix in vitro pharmacology data”.
# Columns and labels:
# [1] = DRUGMATRIX: Platelet-Derived Growth Factor (PDGF) radioligand binding (ligand: [125I] PDGF); assay type: cell-based; conditions: nih3t3; Not Active = under 50% inhibition at 10 µM
# [2] = target: Protein phosphatase 3 catalytic subunit alpha (Homo sapiens, UniProt Q08209); parameters: species or system Escherichia coli;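 also: inhibition of calcineurin (PP2B) enzyme activity, measured with DiFMUP as the substrate; in other assays of this panel Not Active means under 50% inhibition at 10 µM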
# [3] = target: Sigma non-opioid intracellular receptor 1 (Homo sapiens, UniProt Q99720); test: DRUGMATRIX: Sigma1 radioligand binding (ligand: [3H] Haloperidol); assay type: cell membranes, Jurkat, Membrane; conditions: jurkat; Not Active = under 50% inhibition at 10 µM
# [4] = target: Kappa-type opioid receptor (Homo sapiens, UniProt P41145); test: DRUGMATRIX: Opiate kappa (OP2, KOP) radioligand binding (ligand: [3H] Diprenorphine); assay type: cell membranes, HEK293, Membrane; conditions: Not Active = under 50% inhibition at 10 µM
# [5] = target: Beta-1 adrenergic receptor (Homo sapiens, UniProt P08588); test: DRUGMATRIX: Adrenergic beta1 radioligand binding (ligand: [125I] Cyanopindolol); assay type: cell membranes, CHO-K1, Membrane; conditions: cho-k1; Not Active = under 50% inhibition at 10 µM
# Cathepsin G = target: T1, Cathepsin G (Homo sapiens, UniProt P08311); assay type: tissue-based; conditions: neutrophil;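 also: inhibition of Cathepsin G enzyme activity, tested on an AMC-conjugated peptide substrate; in other assays of this panel Not Active means under 50% inhibition at 10 µM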
# T1 sequence (P08311 whole entry): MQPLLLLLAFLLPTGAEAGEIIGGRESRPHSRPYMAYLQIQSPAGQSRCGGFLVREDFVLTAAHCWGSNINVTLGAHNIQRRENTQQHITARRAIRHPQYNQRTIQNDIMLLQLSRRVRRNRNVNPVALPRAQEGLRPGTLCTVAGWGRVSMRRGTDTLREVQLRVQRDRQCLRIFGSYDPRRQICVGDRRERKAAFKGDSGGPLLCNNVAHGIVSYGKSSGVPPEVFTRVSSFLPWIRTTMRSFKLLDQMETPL
# [6] = DRUGMATRIX: beta-Lactamase enzyme inhibition (substrate: Nitrocefin); parameters: species or system Bacillus cereus; conditions: Not Active = under 50% inhibition at 10 µM
# Sigma non-opioid intracellular receptor 1, sequence (Q99720 whole entry): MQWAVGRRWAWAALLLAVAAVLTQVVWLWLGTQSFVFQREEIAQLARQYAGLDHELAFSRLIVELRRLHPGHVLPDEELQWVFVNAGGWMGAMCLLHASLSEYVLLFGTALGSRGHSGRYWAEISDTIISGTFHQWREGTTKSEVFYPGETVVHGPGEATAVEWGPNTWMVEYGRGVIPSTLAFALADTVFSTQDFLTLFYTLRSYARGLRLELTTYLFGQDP
# Beta-1 adrenergic receptor, sequence (P08588 whole entry): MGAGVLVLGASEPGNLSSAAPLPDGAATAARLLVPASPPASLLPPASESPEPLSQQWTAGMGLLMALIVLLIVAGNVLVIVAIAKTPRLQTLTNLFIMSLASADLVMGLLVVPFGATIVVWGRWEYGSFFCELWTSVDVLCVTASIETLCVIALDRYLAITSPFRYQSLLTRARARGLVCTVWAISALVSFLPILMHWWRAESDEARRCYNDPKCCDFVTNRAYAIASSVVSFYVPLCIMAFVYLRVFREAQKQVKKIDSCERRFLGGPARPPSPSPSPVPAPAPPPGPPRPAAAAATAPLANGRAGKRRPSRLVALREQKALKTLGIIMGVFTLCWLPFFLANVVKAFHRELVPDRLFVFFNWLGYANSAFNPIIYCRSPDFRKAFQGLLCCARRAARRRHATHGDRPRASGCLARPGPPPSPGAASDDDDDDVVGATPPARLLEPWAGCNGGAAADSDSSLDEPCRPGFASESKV
# Kappa-type opioid receptor, sequence (P41145 whole entry): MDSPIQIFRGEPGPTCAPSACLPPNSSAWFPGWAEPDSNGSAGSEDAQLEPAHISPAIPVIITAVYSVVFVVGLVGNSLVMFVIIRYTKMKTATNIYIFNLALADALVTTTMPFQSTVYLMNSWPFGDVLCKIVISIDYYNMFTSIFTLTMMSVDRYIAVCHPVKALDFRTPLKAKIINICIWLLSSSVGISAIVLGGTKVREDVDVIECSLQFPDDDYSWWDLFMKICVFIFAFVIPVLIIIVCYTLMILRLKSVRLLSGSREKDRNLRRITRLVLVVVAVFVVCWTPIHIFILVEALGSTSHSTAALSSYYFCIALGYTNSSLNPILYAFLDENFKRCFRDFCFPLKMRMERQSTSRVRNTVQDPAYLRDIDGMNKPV
Compound,IC50 [1],Ki [1],IC50 [2],IC50 [3],IC50 ([4]; hek293),IC50 [5],IC50 (Cathepsin G),IC50 [6],Ki [6],Ki [4],IC50 ([4]; read-out: IC50),Ki [2],Ki [3],Ki [5],Ki (Cathepsin G)
CCOc1nc2cccc(C(=O)O)c2n1Cc1ccc(-c2ccccc2-c2nnn[nH]2)cc1,Not Active,Not Active,Not Active,Not Active,Not Active,Not Active,Not Active,Not Active,Not Active,,,,,,
O=C(O)CCCc1cccs1,Not Active,Not Active,Not Active,Not Active,Not Active,Not Active,Not Active,Not Active,Not Active,,,,,,
COc1ccccc1N,Not Active,Not Active,Not Active,Not Active,Not Active,Not Active,Not Active,Not Active,Not Active,,,,,,
O=C(c1ccccc1F)N1CCC(Cc2ccccc2)CC1,Not Active,Not Active,Not Active,Not Active,Not Active,Not Active,Not Active,Not Active,Not Active,,,,,,
Cc1c(O)cccc1C(=O)N[C@@H](CSc1ccccc1)[C@H](O)CN1C[C@H]2CCCC[C@H]2C[C@H]1C(=O)NC(C)(C)C,Not Active,Not Active,Not Active,Not Active,,,Not Active,Not Active,Not Active,14.4 µM,36 µM,,,,
CC(O)COC[C@H]1O[C@@H]2O[C@H]3[C@H](O)[C@@H](O)[C@@H](O[C@H]4[C@H](O)[C@@H](O)[C@@H](O[C@H]5[C@H](O)[C@@H](O)[C@@H](O[C@H]6[C@H](O)[C@@H](O)[C@@H](O[C@H]7[C@H](O)[C@@H](O)[C@@H](O[C@H]8[C@H](O)[C@@H](O)[C@@H](O[C@H]1[C@H](O)[C@H]2O)O[C@@H]8COCC(C)O)O[C@@H]7COCC(C)O)O[C@@H]6COCC(C)O)O[C@@H]5COCC(C)O)O[C@@H]4COCC(C)O)O[C@@H]3COCC(C)O (stereo partly drawn) [2-HYDROXYPROPYL-BETA-CYCLODEXTRIN],Not Active,Not Active,Not Active,Not Active,Not Active,Not Active,Not Active,Not Active,Not Active,,,,,,
NC(=O)c1cccc(N)c1 [3-AMINOBENZAMIDE],Not Active,Not Active,Not Active,Not Active,Not Active,Not Active,Not Active,Not Active,Not Active,,,,,,
C[C@H]1O[C@H](O[C@H]2[C@H](O)[C@@H](O)[C@@H](O[C@H]3[C@H](O)[C@@H](O)C(O)O[C@@H]3CO)O[C@@H]2CO)[C@H](O)[C@@H](O)[C@@H]1N[C@H]1C=C(CO)[C@@H](O)[C@H](O)[C@H]1O (stereo not given in full) [ACARBOSE],Not Active,Not Active,Not Active,Not Active,Not Active,Not Active,Not Active,Not Active,Not Active,,,,,,
CC[C@H]1[C@@H]2C[C@H]3[C@@H]4N(C)c5ccccc5[C@]45C[C@@H]([C@@H]2[C@H]5O)N3[C@@H]1O [AJMALINE],Not Active,Not Active,Not Active,Not Active,Not Active,Not Active,Not Active,Not Active,Not Active,,,,,,
NC12CC3CC(CC(C3)C1)C2 [AMANTADINE],Not Active,Not Active,Not Active,Not Active,Not Active,Not Active,Not Active,Not Active,Not Active,,,,,,
NCCCNCCSP(=O)(O)O [AMIFOSTINE],Not Active,Not Active,Not Active,Not Active,Not Active,Not Active,Not Active,Not Active,Not Active,,,,,,
COc1cc(OC)c(C(=O)CCCN2CCCC2)c(OC)c1 [BUFLOMEDIL],Not Active,Not Active,Not Active,,Not Active,Not Active,Not Active,Not Active,Not Active,,,,,,
O=C(O)CC(O)(CC(=O)O)C(=O)O [CITRIC ACID],Not Active,Not Active,Not Active,Not Active,Not Active,,Not Active,Not Active,Not Active,,,,,,
CN1CCN(C(c2ccccc2)c2ccccc2)CC1 [CYCLIZINE],Not Active,Not Active,Not Active,,Not Active,Not Active,Not Active,Not Active,Not Active,,,,,,
CN1CCC(=C2c3ccccc3CC(=O)c3sccc32)CC1 [KETOTIFEN],Not Active,Not Active,Not Active,Not Active,Not Active,,Not Active,Not Active,Not Active,,,,,,
C[N+](C)(C)C[C@H](O)CC(=O)[O-] [LEVOCARNITINE],Not Active,Not Active,Not Active,Not Active,,Not Active,Not Active,Not Active,Not Active,,,,,,
C[C@]12CC[C@H]3[C@@H](CCC4=CC(=O)CC[C@@H]43)[C@@H]1CC[C@@H]2O [NANDROLONE],Not Active,Not Active,Not Active,Not Active,,Not Active,Not Active,Not Active,Not Active,,,,,,
CN(C)C(=O)Oc1cccc([N+](C)(C)C)c1.[Br-] [NEOSTIGMINE BROMIDE],Not Active,Not Active,Not Active,Not Active,,Not Active,Not Active,Not Active,Not Active,,,,,,
C[C@@H]1O[C@@H](O[C@H]2C[C@@H](O)[C@]3(CO)[C@H]4[C@H](O)C[C@]5(C)[C@@H](C6=CC(=O)OC6)CC[C@]5(O)[C@@H]4CC[C@]3(O)C2)[C@H](O)[C@H](O)[C@H]1O [OUABAIN],Not Active,Not Active,Not Active,Not Active,,Not Active,Not Active,Not Active,Not Active,,,,,,
NNCCc1ccccc1 [PHENELZINE],Not Active,Not Active,Not Active,Not Active,,Not Active,Not Active,Not Active,Not Active,,,,,,
COBALTOUS CHLORIDE,Not Active,Not Active,Not Active,Not Active,,Not Active,Not Active,Not Active,Not Active,,,Not Active,Not Active,Not Active,Not Active
COLISTIN,Not Active,Not Active,Not Active,Not Active,,Not Active,Not Active,Not Active,Not Active,,,Not Active,Not Active,Not Active,Not Active
